Data on 17 molecules can be found in US20250002470A1, “NITROGEN-CONTAINING COMPOUND, PREPARATION METHOD THEREFOR AND APPLICATION THEREOF” (ZHEJIANG AIXPLORER BIOTECH CO., LTD., priority 2021, published 2025).

As a reminder, the IC50 is the concentration at which inhibition is half-maximal. Read a low IC50 as greater potency in that assay. In general, AUC refers to the area under the concentration-time curve, a measure of exposure. As a reminder, the half-life is how long it takes for the measured level to halve. High values mean slow loss, low ones fast loss. One may read the Cmax as the maximum level reached in the sampled fluid or tissue.

In one data set the target is hERG potassium channel (Homo sapiens, UniProt Q12809). Kind of data set: Whole-cell patch-clamp (QPatch) of hERG current in HEK293 cells stably expressing hERG. The class given is cell-based. The method, then:
In this study, a whole-cell patch-clamp technique was used to study the inhibitory effect of compounds on hERG potassium channels and to evaluate the risk of ventricular repolarization toxicity.
The HEK293 cell line stably expressing the hERG potassium channel cells was purchased from Creacell, Inc. (Cat. No. A-0320).
The HEK293 cell line that can stably express the hERG potassium channel, was cultured in DMEM medium containing 10% fetal bovine serum and 0.8 mg/mL G418 at 37° C. and 5% carbon dioxide.
Before the test, the cells were separated with TrypLET Express, centrifuged after adding medium to terminate digestion, resuspended the cell count, adjusted the cell density to 2-3×10^6 cells/mL, and then lightly mixed the cells on a room temperature equilibration shaker for 15-20 min.
Electrophysiological assays were performed using a fully automated patch-clamp QPatch 48 X (Sophion) device. The prepared cells were placed on a centrifuge on the Qpatch bench, the cells were washed using multiple centrifugation/suspension methods, and the cell culture medium was replaced with extracellular fluid. Remove an MTP-96 plate and place it in the location of the MTP source. Remove the QPlate chip and subsequently place the QPlate at the Qplate source location. The robotic arm scans the MTP-96 board and the QPlate chip barcode and grabs it to the measuring station. Draw the intracellular and external fluid from the liquid pool and add them to the intracellular fluid pool, cell and test cell pool of the QPlate chip, respectively. At the measuring station, all measuring sites on the QPlate undergo initial quality control. The quality control process includes aspirating the cell suspension from the cell vessel of the centrifuge and positioning the cells to the chip wells via a pressure controller to establish a high-resistance seal and create a whole-cell recording pattern.
The voltage stimulation protocol for whole-cell patch-clamp recording of whole-cell hERG potassium currents is as follows: the cell membrane voltage clamps at −80 mV when a whole-cell closure is formed. The clamping voltage is depolarized from −80 mV to −50 mV for 0.5 s (as a leakage current detection), then steps to 30 mV for 2.5 s, and then quickly recovers to −50 mV for 4 s to excite the tail current of the hERG channel. The data were collected repeatedly every 10 s to observe the effect of the drug on the hERG tail current. −50 mV stimulation at 0.5 s was used as the leakage current detection. The test data is collected by Qpatch and stored in the connected service station.
First, the current after the effect of each drug concentration and the blank control current are normalized 0, and then the inhibition rate corresponding to each drug concentration is calculated.
Calculate the mean and standard error for each concentration and calculate the semi-inhibitory concentration for each compound using the following Formula:
Y=Bottom+(Top−Bottom)/(1+10^((LogIC50−X)*HillSlope)) The above Formula was used to fit the dose-dependent effect nonlinearly, where C represents the test substance concentration, IC50 is the semi-inhibitory concentration, and h represents the Hill coefficient. Curve fitting and IC50 calculations were performed using Graphpad software.

Data set [1] is described as follows: In vivo pharmacokinetic evaluation in mice (IV and PO). The settings on record: CD-1 mice; for AUC / clearance / half-life / Vd / Cmax: mouse, plasma; for Vd: read-out: Vss. The procedure: CD-1 mice, after fasting overnight (free drinking), are divided into tail vein (IV) and gavage administration (PO) groups. The tail vein administration group collected 0.1 mL of blood from the orbital venous plexus before administration and 5 minutes, 15 minutes, 0.5 hours, 1 hour, 2 hours, 4 hours, 8 hours, 12 hours, and 24 hours after administration, and sample centrifugation at 4° C. for 5 minutes, and stored at −70° C. for testing. […] The plasma parent drug concentration was determined by LC-MS/MS.

In a further data set the target is T1, NLRP3 (Homo sapiens, UniProt Q96P20).
T1 construct: endogenous in cells; host or cells: THP-1 cells (IFN-γ differentiated, LPS primed, ATP stimulated)
T1 sequence (Q96P20 whole entry): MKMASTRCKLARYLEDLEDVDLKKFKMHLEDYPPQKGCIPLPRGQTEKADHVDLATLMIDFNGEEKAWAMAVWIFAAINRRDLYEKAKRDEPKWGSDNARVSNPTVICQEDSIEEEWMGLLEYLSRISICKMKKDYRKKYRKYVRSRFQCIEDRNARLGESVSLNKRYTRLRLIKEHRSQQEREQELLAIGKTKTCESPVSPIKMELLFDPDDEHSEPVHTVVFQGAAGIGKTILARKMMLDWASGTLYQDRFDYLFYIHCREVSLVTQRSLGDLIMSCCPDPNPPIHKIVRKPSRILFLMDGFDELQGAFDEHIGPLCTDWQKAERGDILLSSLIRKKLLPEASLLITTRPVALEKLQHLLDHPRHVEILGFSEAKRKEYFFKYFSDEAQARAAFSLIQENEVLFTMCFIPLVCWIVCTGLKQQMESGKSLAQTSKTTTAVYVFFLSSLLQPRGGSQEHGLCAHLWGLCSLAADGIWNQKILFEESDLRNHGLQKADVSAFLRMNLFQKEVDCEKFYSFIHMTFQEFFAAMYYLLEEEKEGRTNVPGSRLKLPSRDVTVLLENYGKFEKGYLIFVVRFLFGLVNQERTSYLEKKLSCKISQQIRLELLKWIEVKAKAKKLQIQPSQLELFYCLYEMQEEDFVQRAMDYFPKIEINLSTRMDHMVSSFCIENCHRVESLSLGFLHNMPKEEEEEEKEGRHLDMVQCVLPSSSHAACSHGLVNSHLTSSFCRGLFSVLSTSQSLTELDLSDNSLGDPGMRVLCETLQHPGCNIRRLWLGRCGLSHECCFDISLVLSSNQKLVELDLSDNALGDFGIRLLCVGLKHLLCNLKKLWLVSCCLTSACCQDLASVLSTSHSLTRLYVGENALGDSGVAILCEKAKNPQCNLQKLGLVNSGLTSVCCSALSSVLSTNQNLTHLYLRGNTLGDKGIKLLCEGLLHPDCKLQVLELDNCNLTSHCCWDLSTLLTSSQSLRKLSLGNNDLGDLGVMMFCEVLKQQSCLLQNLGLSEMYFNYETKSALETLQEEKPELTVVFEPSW
As to the kind of experiment: IL-1β (interleukin-1β) secretion in IFN-γ-differentiated, LPS/ATP-stimulated THP-1 cells (half inhibition rate of NLRP3). The class given is cell-based. The settings on record: IFN-γ 25 ng/mL, LPS 50 ng/mL, ATP 5 mM. The method, then: Remove THP-1 cells from liquid nitrogen and place in a 37° C. water bath until ice melt. Add the cells to 5 mL of warm cell culture medium and centrifuge at 1,000 rpm for 5 min. Discard the supernatant and resuspend and culture in a new cell culture medium.
THP-1 cells are cultured in the culture medium and passaged every 2-3 days.
2.1.1 Add 100 μL of cell suspension per well to the cell plate and incubate the cell plate in a 37° C., 5% CO2 incubator for 24 hours.
2.2.1 Discard the supernatant of IFN-γ differentiation after differentiation treatment. Add 100 μL of serum-free medium containing LPS (final concentration of 50 ng/mL) to the cell plate. The cell plates were incubated in a 37° C., 5% CO2 incubator for 4 h.
Place the cell plate in an incubator at 37° C. and 5% CO2 for 1 hour.
2.2.3 Add 20 μL of 6×ATP per well according to the plate map (final concentration 5 mM) and incubate the cell plate in a 37° C., 5% CO2 incubator for 1 h. Collect the supernatant (60 μL) and store at −20° C.
The capture antibody mAb Mt175 is diluted to 2 μg/mL with PBS (1:250) and added to the cell plate at 15 μL per well. Keep the plate overnight at 4° C.
2.4.1 Discard the coated antibody and wash 4 times with PBST.
2.4.3 Discard the blocking buffer and wash 4 times with PBST.
2.4.4 Add 25 μL of 2.2.3 collected supernatant sample per well and incubate for 2 h at room temperature.
2.4.5 Discard the samples and wash 4 times with PBST.
2.4.6 Add mAb7P10-biotin (concentration 0.5 ug/mL) to blocking buffer, add 15 μL per well to the cell plate, and incubate for 1 hour at room temperature.
2.4.7 Discard the antibody and wash 4 times with PBST.
2.4.8 Streptavidin-HRP was diluted 1:1000 in blocking buffer, 15 μL per well was added to the cell plate, and incubated for 1 hour at room temperature.
2.4.9 Discard streptavidin-HRP and wash 4 times with PBST.
2.4.10 Add 25 μL of HRP substrate (Surmodics-TMBW-0100-01) per well and incubate the cell plate until a blue product appears.
2.4.11 Add 25 μL of stop solution (Surmodics-LSTP-0100-01) per well, and the blue product turns yellow.
2.4.12 Read the cell plate at 450 nm with a microplate reader.

Some results are limits rather than exact numbers.

Chain of hERG potassium channel (Q12809 whole entry): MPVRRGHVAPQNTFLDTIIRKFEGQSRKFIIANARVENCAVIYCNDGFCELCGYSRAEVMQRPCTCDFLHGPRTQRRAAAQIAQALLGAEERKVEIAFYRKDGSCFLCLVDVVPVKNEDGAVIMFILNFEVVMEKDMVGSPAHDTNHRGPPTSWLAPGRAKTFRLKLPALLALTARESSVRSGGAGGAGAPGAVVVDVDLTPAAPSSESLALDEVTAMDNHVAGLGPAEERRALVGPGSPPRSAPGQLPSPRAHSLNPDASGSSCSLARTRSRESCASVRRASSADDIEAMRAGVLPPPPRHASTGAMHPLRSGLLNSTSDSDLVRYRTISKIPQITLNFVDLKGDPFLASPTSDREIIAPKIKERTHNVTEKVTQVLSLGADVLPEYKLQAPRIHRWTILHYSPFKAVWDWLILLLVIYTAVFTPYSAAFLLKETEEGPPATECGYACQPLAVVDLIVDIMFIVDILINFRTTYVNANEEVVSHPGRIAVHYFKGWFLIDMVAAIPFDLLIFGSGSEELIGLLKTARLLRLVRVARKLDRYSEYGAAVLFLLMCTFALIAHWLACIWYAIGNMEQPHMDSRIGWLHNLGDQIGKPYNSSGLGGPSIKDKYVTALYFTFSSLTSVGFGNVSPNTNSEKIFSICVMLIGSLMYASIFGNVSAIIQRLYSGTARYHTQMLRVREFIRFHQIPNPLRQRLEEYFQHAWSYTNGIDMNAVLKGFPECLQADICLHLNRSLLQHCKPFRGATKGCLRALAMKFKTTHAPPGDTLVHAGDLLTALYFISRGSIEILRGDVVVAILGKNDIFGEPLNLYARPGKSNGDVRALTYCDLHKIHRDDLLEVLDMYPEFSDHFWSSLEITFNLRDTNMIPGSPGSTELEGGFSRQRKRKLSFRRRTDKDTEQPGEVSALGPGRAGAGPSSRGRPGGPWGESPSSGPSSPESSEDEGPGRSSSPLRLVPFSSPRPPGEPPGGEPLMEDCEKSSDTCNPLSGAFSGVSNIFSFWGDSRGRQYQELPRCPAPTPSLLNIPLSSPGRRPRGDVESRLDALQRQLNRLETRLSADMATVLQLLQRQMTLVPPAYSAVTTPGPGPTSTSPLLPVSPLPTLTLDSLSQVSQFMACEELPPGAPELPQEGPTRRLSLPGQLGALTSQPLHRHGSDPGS

Consider `Cc1nc(N[C@@H]2CCCN(C(C)(C)CO)C2)nnc1-c1ccc(C(F)(F)F)cc1O` [Embodiment 132], for which the IC50 on hERG potassium channel is more than 30000 nM. In data set [1] (PO, 20 mg/kg), the F is 88.5%, the exposure (AUC) was 18600 ng·h/mL, the concentration peaked (Cmax) at 3070 ng/mL and the half-life is 2.53 h. Also, in data set [1] (IV, 3 mg/kg), the AUC stood at 3160 ng·h/mL, the clearance is 15.8 mL/min/kg, the half-life is 2.81 h and the Vd turned out to be 3.56 L/kg. 4.1 nM corresponded to half-maximal inhibition at NLRP3 (IC50).

For the molecule `Cc1nc(N[C@@H]2CCCN([C@@H](C)CO)C2)nnc1-c1ccc(C(F)(F)F)cc1O` [Embodiment 147], at hERG potassium channel, the IC50 is more than 30000 nM. Further, in data set [1] (PO, 20 mg/kg), the F was 78.7%, the area under the curve (AUC) was 17200 ng·h/mL, the highest level (Cmax) was 5710 ng/mL and the half-life is 2.76 h. In data set [1] (IV, 3 mg/kg), the AUC amounted to 3290 ng·h/mL, the clearance is 15.2 mL/min/kg, the half-life was 3.28 h and the Vd was 3.39 L/kg. This molecule also returned a 50% inhibitory concentration (IC50) against NLRP3 of 9 nM.

`Cc1nc(N[C@@H]2CCCN([C@H](C)CO)C2)nnc1-c1ccc(C(F)(F)F)cc1O` [Embodiment 148]: the IC50 against hERG potassium channel was more than 30000 nM. In data set [1] (PO, 20 mg/kg), this molecule gave an F of 95.2%, an AUC of 30100 ng·h/mL, a peak concentration (Cmax) of 7730 ng/mL and a half-life of 3.68 h. Moreover, in data set [1] (IV, 3 mg/kg), the AUC was found to be 4750 ng·h/mL, the clearance was 10.5 mL/min/kg, the half-life was 4.17 h and the Vd worked out at 3 L/kg. The same molecule displayed an IC50 against NLRP3 of 14.4 nM.

In the case of `Cc1nc(N[C@@H]2CCCN(CCO)C2)nnc1-c1ccc(C(F)(F)F)cc1O` [Embodiment 44, (R)-2-(3-((1-(2-hydroxyethyl)piperidin-3-yl)amino)-5-methyl-1,2,4-triazin-6-yl)-5-(trifluoromethyl)phenol], the IC50 at hERG potassium channel was more than 30000 nM. In data set [1] (PO, 20 mg/kg), this molecule gave an F of 95.3%, an area under the curve (AUC) of 18800 ng·h/mL, a maximum concentration (Cmax) of 4530 ng/mL and a half-life of 3.62 h. Besides, in data set [1] (IV, 3 mg/kg), the exposure (AUC) was determined as 2950 ng·h/mL, the clearance is 16.8 mL/min/kg, the half-life was 4.02 h and the Vd is 4.35 L/kg. The same molecule came in with a half-inhibitory concentration (IC50) at NLRP3 of 0.4 nM.

Turning to `C[C@]1(O)C[C@@H](Nc2nnc(-c3ccc(C(F)(F)F)cc3O)c3cnccc23)C1` [Embodiment 78], the values for the IC50 at hERG potassium channel and on NLRP3 were more than 30000 nM and 2.8 nM, respectively.

On to `CC(CO)N1CCC[C@@H](Nc2nnc(-c3ccc(C(F)(F)F)cc3O)c3cnccc23)C1` (some centres unmarked) [Embodiment 127], for which the figures for the IC50 against hERG potassium channel and against NLRP3 were more than 30000 nM and 3.5 nM, respectively.

Take `Cc1nc(N[C@@H]2CCCN(CCO)C2)nnc1-c1ccc(Cl)cc1O` [Embodiment 152]: the values for the IC50 against hERG potassium channel and on NLRP3 were more than 30000 nM and 10.4 nM, respectively.

On to `Oc1cc(C(F)(F)F)ccc1-c1nnc(N[C@@H]2CCCC[C@H]2O)c2c(F)cccc12` [Embodiment 135], for which the concentration for half-maximal inhibition (IC50) against hERG potassium channel was more than 30000 nM; on NLRP3, 5.1 nM.

As for `OCCN1CCC[C@@H](Nc2nnc(-c3ccc(Cl)cc3O)c3ccc(F)cc23)C1` [Embodiment 153], the values for the IC50 on hERG potassium channel and at NLRP3 were more than 30000 nM and 2.4 nM, respectively.

For `C[C@]1(O)C[C@@H](Nc2nnc(-c3ccc(C(F)(F)F)cc3O)c3ccc(F)cc23)C1` [Embodiment 139], the IC50 on hERG potassium channel was more than 30000 nM; at NLRP3, 1.9 nM.

For the molecule `Cc1nc(N[C@@H]2CCCN(CC(C)(C)O)C2)nnc1-c1ccc(C(F)(F)F)cc1O` [Embodiment 133], the 50% inhibitory concentration (IC50) at hERG potassium channel is more than 30000 nM; against NLRP3, 6.6 nM.

In the case of `Cc1nc(N[C@@H]2CCCN(C(C)CO)C2)nnc1-c1ccc(C(F)(F)F)cc1O` (stereo partly drawn) [Embodiment 43, 2-(3-(((3R)-1-(1-hydroxypropyl-2-yl)piperidin-3-yl)amino)-5-methyl-1,2,4-triazin-6-yl)-5-(trifluoromethyl)phenol], the IC50 at hERG potassium channel was more than 30000 nM; at NLRP3 it was 6.5 nM.

As for `Cc1nc(N[C@H]2C[C@@](C)(O)C2)nnc1-c1ccc(C(F)(F)F)cc1O` [Embodiment 37, 2-(3-(((cis)-3-hydroxy-3-methylcyclobutyl)amino)-5-methyl-1,2,4-triazin-6-yl)-5-(trifluoromethyl)phenol], the IC50 against hERG potassium channel was more than 30000 nM; at NLRP3, 27.3 nM.

Consider `Oc1cc(C(F)(F)F)ccc1-c1nnc(N[C@@H]2CCCC[C@H]2O)c2ccccc12` [Embodiment 64], for which the values for the IC50 against hERG potassium channel and against NLRP3 were more than 30000 nM and 4.7 nM, respectively.

Regarding `Cc1cc(C(F)(F)F)cc(O)c1-c1cnc(N[C@@H]2CCCN(CCO)C2)nn1` [Embodiment 48, (R)-2-(3-((1-(2-hydroxyethyl)piperidin-3-yl)amino)-1,2,4-triazin-6-yl)-3-methyl-5-(trifluoromethyl)phenol], the half-inhibitory concentration (IC50) is more than 30000 nM on hERG potassium channel and 9.1 nM against NLRP3.

With `Cc1nc(N[C@@H]2CCCN(C[C@@H](C)O)C2)nnc1-c1ccc(C(F)(F)F)cc1O` [Embodiment 150], the figures for the IC50 against hERG potassium channel and at NLRP3 were more than 30000 nM and 9.9 nM, respectively.

As for `Oc1cc(C(F)(F)F)ccc1-c1nnc(N[C@@H]2CCCC[C@H]2O)c2cc(F)ccc12` [Embodiment 136], the IC50 on hERG potassium channel is more than 30000 nM. In data set [1] (PO, 20 mg/kg), this molecule gave an F of 93.8%, an area under the curve (AUC) of 20300 ng·h/mL, a Cmax of 6520 ng/mL and a half-life of 5.67 h. In data set [1] (IV, 3 mg/kg), the exposure (AUC) came to 3250 ng·h/mL, the clearance is 15.1 mL/min/kg, the half-life was 6.07 h and the Vd was 2.35 L/kg. The molecule also yielded an IC50 at NLRP3 of 4.4 nM.
